{"source": "ChEMBL document CHEMBL1158022", "about": "“Norpregnane glycosides from a Thai soft coral, Scleronephthya pallida” (J Nat Prod, 1999)", "key": {"Plasmodium falciparum": {"tested_on": "Plasmodium falciparum", "test": "Antimalarial activity against multidrug-resistant Plasmodium falciparum K1 by [3H]hypoxanthine uptake", "type": "functional, organism-based"}, "[1]": {"test": "Cytotoxicity against BCA1 cells by SRB assay", "type": "functional", "conditions": "read-out: ED50 (the source's name)"}}}
{"smiles": "CCN(CC)CCCC(C)Nc1ccnc2cc(Cl)ccc12.O=P(O)(O)O.O=P(O)(O)O", "note": "(stereo not drawn) [CHLOROQUINE PHOSPHATE]", "values": [{"measurement": "EC50", "setting": "Plasmodium falciparum", "result": 1.6, "unit": "×10⁻⁷ g/ml"}]}
{"smiles": "C=C[C@H]1CC[C@H]2[C@@H]3CCc4cc(O[C@H]5O[C@H](C)[C@H](O)[C@H](O)[C@H]5O)ccc4[C@H]3CC[C@]12C", "values": [{"measurement": "EC50", "setting": "Plasmodium falciparum; Plasmodium falciparum, K1, read-out: EC50", "result": 1.5, "unit": "µg/mL"}, {"measurement": "EC50", "setting": "[1]", "result": 10, "unit": "µg/mL"}]}
